Laboratory results: patent US4089893A, “2,2,2-Tris(hydroxymethyl)ethylphosponic acid and method for its preparation” (Borg-Warner Corporation, priority 1976, dated 1978)

Assay: solubility
Assay type: physicochemical
Settings: syrup product of Example 2

O=P(O)(O)CC(CO)(CO)CO [Phosphonic Acid, 3-hydroxy-2,2-bis(hydroxymethyl)propylphosphonic acid]
solubility: soluble in water and highly polar organic solvents
